Data set [1] addresses [Pyruvate dehydrogenase (acetyl-transferring)] kinase isozyme 2, mitochondrial (Homo sapiens, UniProt Q15119). The data set is described as follows: Inhibition of human recombinant PDHK2 assessed as residual PDH activity in presence of ATP using sodium pyruvate/Coenzyme A/thiamine pyrophosphate as substrates incubated for 90 mins by UV-transparent microplate analysis.
Data set [2] in a line: Aqueous solubility of compound in PBS at pH 7.2. In kind it is physicochemical.
A short description of data set [3]: Metabolic stability in human liver s9 fraction measured at 60 mins. In kind it is ADME, subcellular. To be noted: read-out: Stability.
Data set [4] is described as follows: Apparent permeability of compound in human Caco-2 cells. Format: ADME, cell-based.
In data set [5] the target is [Pyruvate dehydrogenase (acetyl-transferring)] kinase isozyme 4, mitochondrial (Homo sapiens, UniProt Q16654). As to the kind of experiment: Inhibition of PDHK4 (unknown origin).
[Pyruvate dehydrogenase (acetyl-transferring)] kinase isozyme 4, mitochondrial, sequence (Q16654 whole entry): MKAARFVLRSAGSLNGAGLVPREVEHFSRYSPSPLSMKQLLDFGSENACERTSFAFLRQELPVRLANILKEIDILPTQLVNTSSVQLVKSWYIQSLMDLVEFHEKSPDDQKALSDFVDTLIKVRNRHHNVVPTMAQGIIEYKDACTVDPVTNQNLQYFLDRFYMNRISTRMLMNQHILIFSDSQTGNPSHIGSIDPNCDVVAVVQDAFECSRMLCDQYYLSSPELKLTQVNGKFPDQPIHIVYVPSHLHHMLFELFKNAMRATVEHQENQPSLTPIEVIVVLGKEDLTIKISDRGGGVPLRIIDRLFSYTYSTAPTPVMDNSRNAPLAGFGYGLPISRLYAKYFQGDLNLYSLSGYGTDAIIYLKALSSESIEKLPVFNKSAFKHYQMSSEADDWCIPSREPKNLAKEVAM
Data set [6] in a line: Total body clearance in Sprague-Dawley rat at 1 mg/kg, iv measured for 25 hrs by LC-MS/MS analysis. Format: ADME, organism-based. To be noted: in vivo.
Data set [7] is described as follows: Volume of distribution at steady state in Sprague-Dawley rat at 1 mg/kg, iv measured for 25 hrs by LC-MS/MS analysis. Format: ADME, organism-based. Particulars: in vivo, read-out: Vdss.
The nature of data set [8]: MRT in Sprague-Dawley rat at 1 mg/kg, iv measured for 25 hrs by LC-MS/MS analysis. In kind it is ADME, organism-based. Particulars: in vivo.
Data set [9] in a line: AUC in Sprague-Dawley rat at 1 mg/kg, iv measured for 25 hrs by LC-MS/MS analysis. Format: ADME, organism-based. To be noted: in vivo.
A short description of data set [10]: Cmax in Sprague-Dawley rat at 10 mg/kg, po measured for 25 hrs by LC-MS/MS analysis. To be noted: in vivo. In kind it is ADME, organism-based.
Data set [11] can be described thus: AUC in Sprague-Dawley rat at 10 mg/kg, po measured for 25 hrs by LC-MS/MS analysis. Format: ADME, organism-based. Particulars: in vivo.
Data set [12] in a line: Oral bioavailability in Sprague-Dawley rat at 10 mg/kg measured for 25 hrs by LC-MS/MS analysis. Particulars: in vivo. Format: ADME, organism-based.
The species named for data set [13] is Rattus norvegicus. As to the kind of experiment: Antidiabetic activity against Sprague-Dawley rat assessed as PDH activity in liver measured at 6 hrs. Format: functional, organism-based. Particulars: dose 0.1-10 mg/kg, route po.
For data set [14], the system named is Rattus norvegicus. As to the kind of experiment: Antidiabetic activity against Zucker fatty rats assessed as decrease in glucose level in plasma at 10 mg/kg administered for 28 days. Format: functional, organism-based. To be noted: time 28.0 day.
Data set [15] in a line: Drug concentration in Sprague-Dawley rat at 10 mg/kg, po measured at 8 hrs by LC-MS/MS analysis. In kind it is ADME, organism-based. Particulars: in vivo, read-out: Drug uptake.
Data set [16] in a line: Drug concentration in Sprague-Dawley rat at 10 mg/kg, po measured at 25 hrs by LC-MS/MS analysis. Format: ADME, organism-based. Particulars: in vivo, read-out: Drug uptake.

≈ marks a conversion by molar mass, not a printed value. Calls of active or inactive are those of the source. No cut-off for these calls is given here.

Take `O=C(c1ccc2c(c1)C(O)(C(F)(F)F)c1ccccc1-2)N1CCC1` (racemic): the 50% inhibitory concentration (IC50) (commonly the concentration at which inhibition is half-maximal) in data set [1] was determined as 170 nM. For the same compound, in data set [2], the solubility (as a rule, how much of the substance goes into solution per volume) is 93 µM (≈ 31 µg/mL). In addition, the remaining at 1 h in data set [3] came out at 49%. For the same compound, the Papp – broadly, the rate of passage across a membrane or cell layer, normalised by area and donor concentration – in data set [4] amounted to 47.5 ×10⁻⁶ cm/s.
For the compound `OCCn1cc(-c2cc(F)cc3c2-c2ccccc2C3(O)C(F)(F)F)cn1` (stereo not drawn), in [1], the IC50 came out at 20 nM. Also, the remaining at 1 h in data set [3] came to 97%. Also, the Papp in data set [4] amounted to 59.8 ×10⁻⁶ cm/s.
With `Nc1nc(SCC(=O)c2ccccc2)nc2sc3c(c12)CCN(Cc1ccccc1)C3`, the IC50 in [1] was 1900 nM. The solubility in data set [2] is at most 0.3 µM. For the same compound, the remaining at 1 h in [3] came to 6%.
`CC(C)(C)Cn1cc(-c2cccc3c2-c2ccccc2C3(O)C(F)(F)F)cn1` (racemic) gave a solubility in [2] of at most 0.4 µM. In [3], the remaining at 1 h was 84%. Also, the Papp in [4] came out at 16.2 ×10⁻⁶ cm/s.
Take `OC1(C(F)(F)F)c2ccccc2-c2ccccc21`: the IC50 in [1] came out at 5900 nM. Further, the concentration in solution in data set [2] (solubility) was 87 µM (≈ 21.8 µg/mL). The Papp in data set [4] is 56.8 ×10⁻⁶ cm/s.
The compound `OC1(C(F)(F)F)c2ccccc2-c2c(-c3cccnc3)cccc21` (racemic) returned a solubility in data set [2] of 0.38 µM (≈ 0.124 µg/mL). In addition, the remaining at 1 h in data set [3] came to 80%. In addition, in [4], the apparent permeability (Papp) came to 18 ×10⁻⁶ cm/s.
As to `OC1(C(F)(F)F)c2ccccc2-c2ccc(-c3ccccc3)cc21` (racemic), the solubility in [2] is at most 0.4 µM. For the same compound, the Papp in data set [4] amounted to 9.8 ×10⁻⁶ cm/s.
With `CC(C)C1(O)c2ccccc2-c2ncccc21` (racemic), the IC50 in [1] was determined as 12000 nM. This compound returned a solubility in data set [2] of 94 µM (≈ 21.2 µg/mL). Besides, the remaining at 1 h in data set [3] is 97%.
Regarding `OC1(C(F)(F)F)c2ccccc2-c2c(-c3cncnc3)cccc21` (racemic), the solubility in data set [2] came out at 4.6 µM (≈ 1.51 µg/mL). Also, in [3], the remaining at 1 h stood at 96%. Further, in data set [4], the Papp turned out to be 56.2 ×10⁻⁶ cm/s.
The corresponding values for `O=C(O)CCCOc1ccc2c(c1)C(O)(C(F)(F)F)c1ccccc1-2` (racemic) are at least 95 µM, 92% and 61.5 ×10⁻⁶ cm/s.
For `Cn1cc(-c2cc(OCCCC(=O)O)cc3c2-c2ccccc2C3(O)C(F)(F)F)cn1` (stereo not drawn), the IC50 in [1] came to 20 nM. Moreover, the remaining at 1 h in data set [3] was 91%. Besides, in data set [4], the apparent permeability (Papp) stood at 28.4 ×10⁻⁶ cm/s.
As to `COC(=O)c1cccc2c1-c1ccccc1C2(O)C(F)(F)F` (racemic), the IC50 in data set [1] worked out at 900 nM. In addition, the concentration in solution in data set [2] (solubility) came to 83 µM (≈ 25.6 µg/mL). Moreover, the Papp in [4] was determined as 17.4 ×10⁻⁶ cm/s.
Consider `O=C(c1cc(-c2cnn(CCO)c2)c2c(c1)C(O)(C(F)(F)F)c1ccccc1-2)N1CCC1` (racemic), for which, in data set [3], the remaining at 1 h was found to be 94%. Moreover, the Papp in [4] amounted to 6.5 ×10⁻⁶ cm/s.
For `Cn1cc(-c2cccc3c2-c2ccccc2C3(O)C(F)(F)F)cn1` (racemic), the concentration in solution in [2] (solubility) came to 6.9 µM (≈ 2.28 µg/mL). Besides, in [3], the remaining at 1 h was 62%. Besides, in data set [4], the apparent permeability coefficient (Papp) was 63.1 ×10⁻⁶ cm/s.
In data set [2], `OC1(C(F)(F)F)c2ccccc2-c2c(-c3cnco3)cccc21` (racemic) yielded a solubility of 17 µM (≈ 5.39 µg/mL). The remaining at 1 h in [3] was 61%. Besides, the Papp in data set [4] worked out at 51.1 ×10⁻⁶ cm/s.
Compound `O=C1CCCN1c1ccc2c(c1)C(O)(C(F)(F)F)c1ccccc1-2` (racemic) showed a solubility in [2] of 83 µM (≈ 27.7 µg/mL). For the same compound, in data set [3], the remaining at 1 h was found to be 29%. Also, in data set [4], the Papp is 39.5 ×10⁻⁶ cm/s.
On to `COC(=O)c1ccc2c(c1)C(O)(C(F)(F)F)c1ccccc1-2` (racemic), for which the IC50 in data set [1] turned out to be 600 nM. For the same compound, the concentration in solution in data set [2] (solubility) came to 45 µM (≈ 13.9 µg/mL). Further, the Papp in data set [4] was 34.5 ×10⁻⁶ cm/s.
`CNC(=O)Cn1cc(-c2cccc3c2-c2ccccc2C3(O)C(F)(F)F)cn1` (racemic) showed a solubility in [2] of 94 µM (≈ 36.4 µg/mL). In [3], the remaining at 1 h stood at 93%. The Papp in [4] was 51.2 ×10⁻⁶ cm/s.
For `Cc1cc(-c2cnn(CCO)c2)c2c(c1)C(O)(C(F)(F)F)c1ccccc1-2` (stereo not drawn), the IC50 in [1] was 17 nM; in data set [5], above 1000 nM. Further, in data set [3], the remaining at 1 h came out at 83%. Besides, in [4], the Papp amounted to 54.3 ×10⁻⁶ cm/s. For the same compound, in data set [6], the clearance – broadly, a measure of how efficiently the substance is removed, as volume per time – was 11.7 mL/min/kg. Further, the Vd in [7] was 2.6 L/kg. Moreover, in [8], the MRT (usually the average time that molecules of a dose stay in the body) is 3.9 h. For the same compound, the AUC – broadly, the area under the concentration-time curve, a measure of exposure – at 25 h in data set [9] came to 4.1 µM·h; in data set [11], 57 µM·h. The highest concentration (Cmax) (commonly the highest concentration seen after dosing) in data set [10] was determined as 4.4 µM. Moreover, the bioavailability in data set [12] was determined as 140%. For the same compound, in [13], the Activity entry was “Dose-Dependent Effect”. For the same compound, in data set [14], the outcome was Active. In addition, in data set [15], the concentration at 8 h turned out to be 3.1 µM. Also, in [16], the concentration at 25 h was determined as 0.2 µM.
`OCCCCOc1ccc2c(c1)C(O)(C(F)(F)F)c1ccccc1-2` (racemic) gave a solubility in data set [2] of 85 µM (≈ 28.8 µg/mL). Also, in data set [4], the Papp stood at 48.3 ×10⁻⁶ cm/s.
The compound `OCCn1cc(-c2cccc3c2-c2ccccc2C3(O)C(F)(F)F)cn1` (racemic) gave a solubility in data set [2] of 92 µM (≈ 33.2 µg/mL). Besides, the remaining at 1 h in [3] came to 94%. Further, the Papp in [4] was 68 ×10⁻⁶ cm/s.

(Values after ChEMBL document CHEMBL5576073, “Design and synthesis of novel fluorene derivatives as inhibitors of pyruvate dehydrogenase kinase” (Bioorg Med Chem Lett, 2024).)
